Experimental data: patent US7985740B2, “Purine derivatives as agonists of the adenosine A2A receptor” (Glaxo Group Limited, priority 2005, dated 2011)

Tests used:
[1] = biological target: T1, human adenosine A3 receptor (Homo sapiens, UniProt P0DMS8); assay: Agonist activity at human adenosine A3 receptor, CHO cells with cAMP response element SPAP reporter; format: cell-based; details: forskolin enhanced cAMP
T1 construct: expressed in transfected cells
T1 sequence (P0DMS8 1-318): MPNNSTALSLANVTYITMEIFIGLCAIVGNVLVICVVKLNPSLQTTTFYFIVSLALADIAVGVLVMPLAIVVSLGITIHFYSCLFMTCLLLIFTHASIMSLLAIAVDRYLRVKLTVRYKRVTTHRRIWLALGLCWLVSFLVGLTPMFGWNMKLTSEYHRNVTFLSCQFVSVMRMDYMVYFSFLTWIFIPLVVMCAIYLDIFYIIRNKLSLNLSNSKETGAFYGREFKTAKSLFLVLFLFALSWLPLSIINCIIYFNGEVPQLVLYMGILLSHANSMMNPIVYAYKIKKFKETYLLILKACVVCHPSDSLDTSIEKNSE
Method: The adenosine A3 agonist potency of compounds are determined using Chinese Hamster ovary cells stably expressing the human adenosine A3 receptor and the cAMP response element SPAP (secreted placental alkaline phosphatase). Increasing the level of cAMP in theses cell causes an increase in the transcription of the SPAP reporter gene, which can be quantified by addition of a colour substrate to measure a coloured product. The adenosine A3 receptor is Gi linked so levels cAMP have to be enhanced by forskolin in these cells. Activation of the adenosine A3 receptor is determined by the reduction of forskolin enhanced cAMP, which is measured as a decrease in the coloured product. The Adenosine A3 activity of the test compounds is expressed as a ratio to that of the non-selective adenosine receptor agonist, N-ethyl carboxamide adenosine (NECA).

[2] = biological target: T2, Human Serum Albumin (HSA) (Homo sapiens, UniProt P02768); assay: Human serum albumin (HSA) binding, immobilised HSA HPLC column; format: in vitro ADME; details: for % HSA measured / logK measured: HSA column; for logK measured: derived from the calibration curve; for logtR: logarithm of typical retention time on the HSA column; for tR: typical retention time on the HSA column
T2 construct: purchased Chromtech (Cheshire, UK)
Method: Instrument: Agilent HP1100 HPLC instruments were used throughout.
HPLC columns: Chromtech Immobilised HSA HPLC column 50×3 mm was purchased from Chromtech (Cheshire, UK).
Mobile phase and detection: The mobile phase A was 50 mM pH 7.4 ammonium acetate solution, while mobile phase B was 2-Propanol (HPLC grade, Runcorn, UK). The mobile phase flow rate was 1.8 ml/min. The column temperature was kept at 30° C. The gradient profile and run time were the same with each column, the linear gradient from 0 to 30% 2-propanol was applied from 0 to 3 minutes. From 3 to 5 minutes, the mobile phase composition was constant 30% 2-propanol and 70% 50-mM ammonium acetate. From 5 min to 5.2 min the mobile phase composition was change to 100% ammonium acetate buffer only and remained the same until the end of the run. Each separation was stopped after 6 minutes. The column temperature was kept at 30° C.
Detection: Chromatograms were recorded at 230 and 254 nm by a diode array UV absorption detector at room temperature.

[3] = linear conversion of literature % PPB; cited from earlier work
[4] = test system: neutrophilia; assay: Inhibition of LPS-induced lung neutrophilia in rats, intratracheal dosing; format: in vivo; details: rat, retested at 30 ug/kg, similar method
Method: Rats are lightly anaesthetized (isofluorane in oxygen) and vehicle or test substance administered intratracheally using a cannula placed trans-orally (200 μl). Following intratracheal administration, rats are returned to their cages and allowed free access to both food and water. Thirty min later, rats are placed in a perspex box and exposed to aerosolized lipopolysaccharide (LPS) (0.15 mg/ml, serotype 0127:B8) for 15 min (Devilbiss nebuliser) at a flow rate of 15 ml/min. Animals are killed 4 h later with pentobarbital (250 mg/kg i.p.). The lungs are lavaged using 3 aliquots (5 ml) of phosphate-buffered saline (Sigma catalogue no. P3813, pH 7.4) containing heparin (10 units/ml); recovered cells are pooled (pooled volume of recovered fluid will be recorded) and centrifuged (1300 rpm for 7 min). The supernatant is removed by aspiration and the cell pellet resuspended in 1 ml phosphate-buffered saline. Total cells are counted (Sysmex Microcell Counter F-500, TOA Medical Electronics Ltd., Japan). Smears are made by diluting recovered fluid (to approximately 10^6 cells/ml) and spinning an aliquot (100 μl) in a centrifuge (Cytospin, Shandon, UK). […] A total of 300 cells per smear are counted by light microscopy under oil immersion (×1000).

T2 sequence (P02768 25-609): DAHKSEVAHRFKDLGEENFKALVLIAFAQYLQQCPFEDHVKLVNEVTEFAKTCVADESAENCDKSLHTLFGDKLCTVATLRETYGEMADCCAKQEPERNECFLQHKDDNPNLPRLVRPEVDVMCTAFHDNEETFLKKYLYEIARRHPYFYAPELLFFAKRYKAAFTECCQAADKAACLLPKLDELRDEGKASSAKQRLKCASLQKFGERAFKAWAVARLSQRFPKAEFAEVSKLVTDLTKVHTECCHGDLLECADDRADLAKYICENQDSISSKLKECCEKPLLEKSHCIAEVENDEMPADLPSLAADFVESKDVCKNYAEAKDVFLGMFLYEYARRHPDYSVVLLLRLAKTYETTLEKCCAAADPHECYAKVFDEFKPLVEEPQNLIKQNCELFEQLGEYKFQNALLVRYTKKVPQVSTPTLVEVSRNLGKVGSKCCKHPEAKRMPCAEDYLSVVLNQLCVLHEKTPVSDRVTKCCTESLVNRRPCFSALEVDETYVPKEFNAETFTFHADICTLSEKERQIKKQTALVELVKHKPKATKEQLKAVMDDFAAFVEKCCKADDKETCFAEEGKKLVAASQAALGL

Question: Which “Adenosine A3 agonist activity” value [1] does the source give for `CCn1nnc([C@H]2O[C@@H](n3cnc4c(N[C@H]5CC[C@H](Nc6ccnc(N[C@H]7CC[C@H](N)CC7)n6)CC5)nc(N[C@H]5CC[C@H](N)CC5)nc43)[C@@H](O)[C@H]2O)n1.O=CO.O=CO.O=CO` [Example 10, (2R,3S,4R,5R)-2-(2-[(trans-4-aminocyclohexyl)amino]-6-{[trans-4-({2-[(trans-4-aminocyclohexyl)amino]-4-pyrimidinyl}amino)cyclohexyl]-amino}-9H-purin-9-yl)-5-(2-ethyl-2H-tetrazol-5-yl)tetrahydro-3,4-furandiol, triformate] here?
Answer: functionally inactive over the concentration range of the assay

Question: For `CCCC1O[C@@H]2C[C@H]3[C@@H]4CCC5=CC(=O)C=C[C@]5(C)[C@H]4[C@@H](O)C[C@]3(C)[C@]2(C(=O)CO)O1` (stereo partly drawn) [Budesonide], which “% HSA measured” value ([2]; pH 7.4) is on record?
Answer: 85.6%

Question: What about the logK measured [2] of the same molecule?
Answer: 0.75

Question: What about the logtR [2] of the same molecule?
Answer: 0.20

Question: And the tR [2]?
Answer: 1.6

Question: And the “lit logK” value [3]?
Answer: 0.83

Question: Which “lit logK” value [3] does the source give for `O=C(O)Cc1ccccc1Nc1c(Cl)cccc1Cl` [Diclofenac] here?
Answer: 1.92

Question: What does the source list for `CNC(=C[N+](=O)[O-])NCCSCc1csc(CN(C)C)n1` [Nizatidine]?
Answer: % HSA measured ([2]; pH 7.4): 24.6%; logK measured [2]: −0.49; tR [2]: 0.40; lit logK [3]: −0.28

Question: Which “% HSA measured” value ([2]; pH 7.4) does the source give for `COC(=O)C1=C(C)NC(C)=C(C(=O)OCCN(C)Cc2ccccc2)C1c1cccc([N+](=O)[O-])c1` (stereo not drawn) [Nicardipine] here?
Answer: 95.0%

Question: What about the logK measured [2] of the same molecule?
Answer: 1.22

Question: And the logtR [2]?
Answer: 0.43

Question: What about the tR [2] of the same molecule?
Answer: 2.7

Question: With `CN1C(C(=O)Nc2ccccn2)=C(O)c2ccccc2S1(=O)=O` [Piroxicam] as the molecule, how does the “% HSA measured” value ([2]; pH 7.4) read?
Answer: 96.6%

Question: What about the logK measured [2] of the same molecule?
Answer: 1.34

Question: What about the logtR [2] of the same molecule?
Answer: 0.49

Question: What about the tR [2] of the same molecule?
Answer: 3.1

Question: What about the “lit logK” value [3] of the same molecule?
Answer: 1.16

Question: For `CCn1nnc(C2OC(n3cnc4c(NC5CCC(Nc6ccnc(NCCc7nc[nH]c7C)n6)CC5)nc(NCCc5nc[nH]c5C)nc43)C(O)C2O)n1.O=CO.O=CO` [Example 8, (2R,3S,4R,5R)-2-(2-ethyl-2H-tetrazol-5-yl)-5-[2-{[2-(5-methyl-1H-imidazol-4-yl)ethyl]amino}-6-({trans-4-[(2-{[2-(5-methyl-1H-imidazol-4-yl)ethyl]amino}-4-pyrimidinyl)amino]cyclohexyl}-amino)-9H-purin-9-yl]tetrahydro-3,4-furandiol, diformate], which HSA binding ([2]; pH 7.4) is on record?
Answer: greater than 90%

Question: And the “Adenosine A3 agonist activity” value [1]?
Answer: functionally inactive over the concentration range of the assay

Question: Which “% HSA measured” value ([2]; pH 7.4) does the source give for `NC(=O)N1c2ccccc2C=Cc2ccccc21` [Carbamazepine] here?
Answer: 80.5%

Question: And the logK measured [2]?
Answer: 0.59

Question: And the logtR [2]?
Answer: 0.13

Question: And the tR [2]?
Answer: 1.35

Question: And the “lit logK” value [3]?
Answer: 0.46

Question: Which inhibition of neutrophilia [4] does the source give for `CCn1nnc([C@H]2O[C@@H](n3cnc4c(N[C@H]5CC[C@H](Nc6nc(NCCCCN7CCCC7)nc7[nH]cnc67)CC5)nc(NCCCCN5CCCC5)nc43)[C@H](O)[C@@H]2O)n1` [Example 4, (2R,3S,4R,5R)-2-(2-ethyl-2H-tetrazol-5-yl)-5-[2-{[4-(1-pyrrolidinyl)butyl]amino}-6-({trans-4-[(2-{[4-(1-pyrrolidinyl)butyl]amino}-1H-purin-6-yl)amino]cyclohexyl}amino)-9H-purin-9-yl]tetrahydro-3,4-furandiol, triformate] here?
Answer: > 50%

Question: Which results are given for `O=C1CN=C(c2ccccn2)c2cc(Br)ccc2N1` [Bromazepam]?
Answer: % HSA measured ([2]; pH 7.4): 74.7%; logK measured [2]: 0.45; logtR [2]: 0.06; tR [2]: 1.16; lit logK [3]: 0.17
